ChEMBL document CHEMBL3217497, “Design, synthesis and antiproliferative activity of indole analogues of indanocine” (2013)

Key:
Assay type in all cases: functional
[1] = system: BT-549; assay: Cytotoxicity against human BT549 cells assessed as growth inhibition
[2] = Cytotoxicity against human OVCAR8 cells assessed as growth inhibition; settings: OVCAR-8
[3] = system: TK-10; assay: Cytotoxicity against human TK10 cells assessed as growth inhibition
[4] = Cytotoxicity against human UO31 cells assessed as growth inhibition; settings: UO-31
[5] = Cytotoxicity against human OVCAR5 cells assessed as growth inhibition; settings: OVCAR-5
[6] = system: ACHN; assay: Cytotoxicity against human ACHN cells assessed as growth inhibition
[7] = system: MDA-MB-231; assay: Cytotoxicity against human MDA-MB-231 cells assessed as growth inhibition
[8] = system: SR; assay: Cytotoxicity against human SR cells assessed as growth inhibition
[9] = system: HCT-116; assay: Cytotoxicity against human HCT116 cells assessed as growth inhibition
[10] = system: M14; assay: Cytotoxicity against human M14 cells assessed as growth inhibition
[11] = system: Malme-3M; assay: Cytotoxicity against human MALME-3M cells assessed as growth inhibition
[12] = system: SW-620; assay: Cytotoxicity against human SW620 cells assessed as growth inhibition
[13] = system: SNB-19; assay: Cytotoxicity against human SNB19 cells assessed as growth inhibition
[14] = Cytotoxicity against human NCI-ADR-RES cells assessed as growth inhibition
[15] = system: MDA-MB-435; assay: Cytotoxicity against human MDA-MB-435 cells assessed as growth inhibition
[16] = system: KM12; assay: Cytotoxicity against human KM12 cells assessed as growth inhibition
[17] = system: NCI-H522; assay: Cytotoxicity against human NCI-H522 cells assessed as growth inhibition
[18] = system: CCRF-CEM; assay: Cytotoxicity against human CCRF-CEM cells assessed as growth inhibition
[19] = Cytotoxicity against human OVCAR4 cells assessed as growth inhibition; settings: OVCAR-4
[20] = system: HT-29; assay: Cytotoxicity against human HT-29 cells assessed as growth inhibition
[21] = Cytotoxicity against human Hs 578T cells assessed as growth inhibition
[22] = system: SK-MEL-5; assay: Cytotoxicity against human SK-MEL-5 cells assessed as growth inhibition
[23] = system: SF-295; assay: Cytotoxicity against human SF295 cells assessed as growth inhibition
[24] = system: HOP-92; assay: Cytotoxicity against human HOP92 cells assessed as growth inhibition
[25] = Cytotoxicity against human UACC257 cells assessed as growth inhibition; settings: UACC-257
[26] = system: SK-OV-3; assay: Cytotoxicity against human SKOV3 cells assessed as growth inhibition
[27] = Cytotoxicity against human EKVX cells assessed as growth inhibition
[28] = Cytotoxicity against human UACC62 cells assessed as growth inhibition; settings: UACC-62
[29] = system: HOP-62; assay: Cytotoxicity against human HOP62 cells assessed as growth inhibition
[30] = system: SNB-75; assay: Cytotoxicity against human SNB75 cells assessed as growth inhibition
[31] = system: DU-145; assay: Cytotoxicity against human DU145 cells assessed as growth inhibition
[32] = system: MDA-MB-468; assay: Cytotoxicity against human MDA-MB-468 cells assessed as growth inhibition
[33] = system: LOX IMVI; assay: Cytotoxicity against human LOXIMVI cells assessed as growth inhibition
[34] = system: SK-MEL-28; assay: Cytotoxicity against human SK-MEL-28 cells assessed as growth inhibition
[35] = system: SN12C; assay: Cytotoxicity against human SN12C cells assessed as growth inhibition
[36] = system: RPMI-8226; assay: Cytotoxicity against human RPMI8226 cells assessed as growth inhibition
[37] = system: A498; assay: Cytotoxicity against human A498 cells assessed as growth inhibition
[38] = system: T47D; assay: Cytotoxicity against human T47D cells assessed as growth inhibition
[39] = Cytotoxicity against human HCT15 cells assessed as growth inhibition; settings: HCT-15
[40] = system: MOLT-4; assay: Cytotoxicity against human MOLT4 cells assessed as growth inhibition
[41] = system: HCC 2998; assay: Cytotoxicity against human HCC2998 cells assessed as growth inhibition
[42] = system: PC-3; assay: Cytotoxicity against human PC3 cells assessed as growth inhibition
[43] = system: NCI-H322M; assay: Cytotoxicity against human NCI-H322M cells assessed as growth inhibition
[44] = system: SF-268; assay: Cytotoxicity against human SF268 cells assessed as growth inhibition
[45] = system: 786-0; assay: Cytotoxicity against human 786-0 cells assessed as growth inhibition
[46] = system: CAKI-1; assay: Cytotoxicity against human CAKI-1 cells assessed as growth inhibition
[47] = system: K562; assay: Cytotoxicity against human K562 cells assessed as growth inhibition
[48] = system: MCF7; assay: Cytotoxicity against human MCF7 cells assessed as growth inhibition
[49] = system: SF-539; assay: Cytotoxicity against human SF539 cells assessed as growth inhibition
[50] = system: NCI-H226; assay: Cytotoxicity against human NCI-H226 cells assessed as growth inhibition
[51] = system: SK-MEL-2; assay: Cytotoxicity against human SK-MEL-2 cells assessed as growth inhibition
[52] = system: NCI-H23; assay: Cytotoxicity against human NCI-H23 cells assessed as growth inhibition
[53] = system: U-251; assay: Cytotoxicity against human U251 cells assessed as growth inhibition
[54] = system: HL-60(TB); assay: Cytotoxicity against human HL-60(TB) cells assessed as growth inhibition
[55] = system: IGROV-1; assay: Cytotoxicity against human IGROV1 cells assessed as growth inhibition
[56] = system: A549; assay: Cytotoxicity against human A549 cells assessed as growth inhibition
[57] = system: RXF 393; assay: Cytotoxicity against human RXF393 cells assessed as growth inhibition
[58] = system: COLO 205; assay: Cytotoxicity against human COLO205 cells assessed as growth inhibition
[59] = Cytotoxicity against human OVCAR3 cells assessed as growth inhibition; settings: OVCAR-3
[60] = system: NCI-H460; assay: Cytotoxicity against human NCI-H460 cells assessed as growth inhibition

## Cc1cc(/C=C2\CCc3c(n(C)c4ccccc34)C2=O)cc(C)c1O
[1]
  GI50: 2840 nM
[2]
  GI50: 920 nM
[3]
  GI50: 1080 nM
[4]
  GI50: 730 nM
[5]
  GI50: 5100 nM
[6]
  GI50: 830 nM
[7]
  GI50: 1060 nM
[8]
  GI50: 340 nM
[9]
  GI50: 390 nM
[10]
  GI50: 390 nM
[11]
  GI50: 450 nM
[12]
  GI50: 430 nM
[13]
  GI50: 630 nM
[14]
  GI50: 340 nM
[15]
  GI50: 160 nM
[16]
  GI50: 450 nM
[17]
  GI50: 140 nM
[18]
  GI50: 740 nM
[19]
  GI50: 3870 nM
[20]
  GI50: 4180 nM
[21]
  GI50: 730 nM
[22]
  GI50: 410 nM
[23]
  GI50: 1480 nM
[24]
  GI50: 6560 nM
[25]
  GI50: 5830 nM
[26]
  GI50: 1520 nM
[27]
  GI50: 4840 nM
[28]
  GI50: 410 nM
[29]
  GI50: 720 nM
[30]
  GI50: 410 nM
[31]
  GI50: 1850 nM
[32]
  GI50: 310 nM
[33]
  GI50: 700 nM
[34]
  GI50: 640 nM
[35]
  GI50: 720 nM
[36]
  GI50: 760 nM
[37]
  GI50: 3390 nM
[38]
  GI50: 2060 nM
[39]
  GI50: 510 nM
[40]
  GI50: 800 nM
[41]
  GI50: 3610 nM
[42]
  GI50: 2490 nM
[43]
  GI50: 2730 nM
[44]
  GI50: 720 nM
[45]
  GI50: 3250 nM
[46]
  GI50: 840 nM
[47]
  GI50: 330 nM
[48]
  GI50: 370 nM
[49]
  GI50: 700 nM
[50]
  GI50: 4380 nM
[51]
  GI50: 330 nM
[52]
  GI50: 2530 nM
[53]
  GI50: 540 nM
[54]
  GI50: 340 nM
[55]
  GI50: 1590 nM
[56]
  GI50: 740 nM
[57]
  GI50: 1080 nM
[58]
  GI50: 22900 nM
[59]
  GI50: 350 nM
[60]
  GI50: 390 nM

## Cc1cc(/C=C2\Cc3c([nH]c4ccccc34)C2=O)cc(C)c1O
[2]
  GI50: 990 nM
[3]
  GI50: 6270 nM
[4]
  GI50: 320 nM
[5]
  GI50: 11100 nM
[7]
  GI50: 3190 nM
[8]
  GI50: 390 nM
[9]
  GI50: 500 nM
[10]
  GI50: 410 nM
[11]
  GI50: 310 nM
[12]
  GI50: 410 nM
[13]
  GI50: 710 nM
[14]
  GI50: 350 nM
[15]
  GI50: 160 nM
[16]
  GI50: 460 nM
[17]
  GI50: 90 nM
[18]
  GI50: 2180 nM
[19]
  GI50: 10200 nM
[20]
  GI50: 15800 nM
[21]
  GI50: 550 nM
[22]
  GI50: 390 nM
[23]
  GI50: 2780 nM
[24]
  GI50: 7470 nM
[25]
  GI50: 26100 nM
[26]
  GI50: 730 nM
[27]
  GI50: 2590 nM
[28]
  GI50: 4570 nM
[29]
  GI50: 650 nM
[30]
  GI50: 290 nM
[31]
  GI50: 2050 nM
[32]
  GI50: 2430 nM
[33]
  GI50: 690 nM
[34]
  GI50: 730 nM
[35]
  GI50: 620 nM
[36]
  GI50: 670 nM
[37]
  GI50: 4860 nM
[38]
  GI50: 12600 nM
[39]
  GI50: 560 nM
[40]
  GI50: 6010 nM
[41]
  GI50: 7490 nM
[42]
  GI50: 3570 nM
[43]
  GI50: 10400 nM
[44]
  GI50: 860 nM
[45]
  GI50: 5960 nM
[46]
  GI50: 1400 nM
[47]
  GI50: 330 nM
[48]
  GI50: 700 nM
[49]
  GI50: 550 nM
[50]
  GI50: 9600 nM
[51]
  GI50: 400 nM
[52]
  GI50: 1790 nM
[53]
  GI50: 1120 nM
[54]
  GI50: 340 nM
[55]
  GI50: 3540 nM
[56]
  GI50: 1580 nM
[57]
  GI50: 1430 nM
[58]
  GI50: 19500 nM
[59]
  GI50: 510 nM
[60]
  GI50: 420 nM
